Among the data in patent US8618095B2 (Rigel Pharmaceuticals, Inc., priority 2010, dated 2013) are IC50 values, retold here.

The experiment deals with Human mast cells (CHMC). In words: LD Tryptase release assay in CHMC (mast cell activation induced by FcγR cross-linking). As to conditions: Homo sapiens, Mast cell, anti-IgG stimulation, activity of tryptase released upon degranulation. It counts as cell-based. As to the method: Compounds were assayed for inhibition of mast cell activation induced by FcγR cross-linking by measuring the activity of tryptase released upon degranulation as follows:
Human mast cells were cultured and differentiated from […] progenitor cell as described in U.S. Patent Publication No. 2005-234049, incorporated herein by reference. For example, 65 μL of various concentrations of the compound to be assayed were prepared in MT (137 mM NaCl, 2.7 mM KCl, 1.8 mM CaCl2, 1.0 mM MgCl2, 5.6 mM Glucose, 20 mM Hepes (pH 7.4), 0.1% Bovine Serum Albumin, (Sigma A4503)) containing 2% MeOH and 1% DMSO, or control buffer were added to duplicate 96-well V-bottom plates. Pelleted and re-suspended (in warm MT) CHMC cells (65 μL) were added to each 96-well plate, mixed and incubated for 1 hour at 37° C. 25 μl of 6× anti-IgG Rabbit anti-human IgG, Affinity purified (Bethyl Laboratories Cat No. A80-105A3) final concentration 1 μg/mL, was added to the test wells. MT (25 μL) was added to control wells. After a 60-minute incubation at 37° C., cells and cell debris were pelleted by centrifugation at 1000 rpm for 10 min and tryptase and leukotriene C4 levels were measured.
To measure tryptase levels, 25 μL of supernatant from each well was transferred to a fresh 96-well black bottom plate, to which 100 μL of fresh tryptase substrate solution [(Z-Ala-Lys-Arg-AMC2TFA; Enzyme Systems Products, #AMC-246)] 1:2000 in tryptase assay buffer [0.1 M Hepes (pH 7.5), 10% w/v Glycerol, 10 μM Heparin (Sigma H-4898) 0.01% NaN3] was added. After 30 minute incubation at room temperature, the optical density of the plates is measured at 355 nm/460 nm on a spectrophotometric plate reader. Table 1 provides the IC50 values.
Compounds of the disclosure were assayed for their ability to inhibit mast cell activation induced by FcγR cross-linking by measuring the activity of tryptase released upon degranulation. The IC50 values for the LD Tryptase assay are presented in Table 2, in which “0” is >100 μM; “A” is 1-100 μM; “B” is 0.5-1 μM; “C” is 0.1-0.5 μM; and “D” is less than 0.1 μM: […]
A word on the IC50: it is the point on the concentration scale where inhibition reaches its midpoint. For `Cc1cc(Nc2ncc(F)c(Nc3ccc4c(n3)NC(=O)CO4)n2)cnc1N1CCOC(C)(C)C1` [Compound 12, N4-(3,4-dihydro-3-oxo-2H-pyrido[3,2-b][1,4]oxazin-6-yl)-5-fluoro-N2-[5-methyl-6-(2,2-dimethylmorpholino)pyridin-3-yl]-2,4-pyrimidinediamine], the IC50 was less than 100 nM.
Consider `Cc1cc(Nc2ncc(F)c(Nc3ccc4c(n3)NC(=O)C(C)(C)O4)n2)cnc1N1CCOCC1` [Compound 13, N4-(2,2-dimethyl-3,4-dihydro-3-oxo-2H-pyrido[3,2-b][1,4]oxazin-6-yl)-5-fluoro-N2-[5-methyl-6-morpholinopyridin-3-yl]-2,4-pyrimidinediamine], for which the IC50 was less than 100 nM.
Then `Cc1cc(Nc2ncc(F)c(Nc3ccc4c(n3)NC(=O)C(C)(C)O4)n2)cnc1N1CCOC(C)(C)C1` [Compound 14, N4-(2,2-dimethyl-3,4-dihydro-3-oxo-2H-pyrido[3,2-b][1,4]oxazin-6-yl)-5-fluoro-N2-[5-methyl-6-(2,2-dimethylmorpholino)pyridin-3-yl]-2,4-pyrimidinediamine], with 500 to 1000 nM; and `CC1(C)CN(c2ncc(Nc3ncc(F)c(Nc4ccc5c(n4)NC(=O)C(C)(C)O5)n3)cc2F)CCO1` [Compound 15, N4-(2,2-dimethyl-3,4-dihydro-3-oxo-2H-pyrido[3,2-b][1,4]oxazin-6-yl)-5-fluoro-N2-[5-fluoro-6-(2,2-dimethylmorpholino)pyridin-3-yl]-2,4-pyrimidinediamine], with 1000 to 100000 nM.
Under `O=C1COc2ccc(Nc3nc(Nc4cnc(N5CCOCC5)c(F)c4)ncc3F)nc2N1` [Compound 16, N4-(3,4-dihydro-3-oxo-2H-pyrido[3,2-b][1,4]oxazin-6-yl)-5-fluoro-N2-[5-fluoro-6-morpholinopyridin-3-yl]-2,4-pyrimidinediamine] stands 100 to 500 nM; under `CC1(C)CN(c2ncc(Nc3ncc(F)c(Nc4ccc5c(n4)NC(=O)CO5)n3)cc2F)CCO1` [Compound 17, N4-(3,4-dihydro-3-oxo-2H-pyrido[3,2-b][1,4]oxazin-6-yl)-5-fluoro-N2-[5-fluoro-6-(2,2-dimethylmorpholino)pyridin-3-yl]-2,4-pyrimidinediamine], 100 to 500 nM; under `CN1CCN(c2ccc(Nc3ncc(F)c(Nc4ccc5c(n4)NC(=O)C(C)(C)O5)n3)cn2)CC1` [Compound 18, N4-(2,2-dimethyl-3,4-dihydro-3-oxo-2H-pyrido[3,2-b][1,4]oxazin-6-yl)-5-fluoro-N2-[6-(4-methylpiperazin-1-yl)pyridin-3-yl]-2,4-pyrimidinediamine], 500 to 1000 nM.
As to `CN1CCN(c2ccc(Nc3ncc(F)c(Nc4ccc5c(n4)NC(=O)CO5)n3)cn2)CC1` [Compound 19, N4-(3,4-dihydro-3-oxo-2H-pyrido[3,2-b][1,4]oxazin-6-yl)-5-fluoro-N2-[6-(4-methylpiperazin-1-yl)pyridin-3-yl]-2,4-pyrimidinediamine], the IC50 was in the range of 1000 to 100000 nM.
Then `COc1cc(Nc2ncc(F)c(Nc3ccc4c(n3)NC(=O)C(C)(C)O4)n2)cnc1N1CCOCC1` [Compound 21, N4-(2,2-dimethyl-3,4-dihydro-3-oxo-2H-pyrido[3,2-b][1,4]oxazin-6-yl)-5-fluoro-N2-[5-methoxy-6-morpholinopyridin-3-yl]-2,4-pyrimidinediamine], with 100 to 500 nM; and `CC1(C)Oc2ccc(Nc3nc(Nc4ccc(C5CCOCC5)nc4)ncc3F)nc2NC1=O` [Compound 22, N4-(2,2-dimethyl-3,4-dihydro-3-oxo-2H-pyrido[3,2-b][1,4]oxazin-6-yl)-5-fluoro-N2-[6-tetrahydropyranopyridin-3-yl]-2,4-pyrimidinediamine], with 100 to 500 nM; and `Cc1cc(Nc2ncc(F)c(Nc3ccc4c(n3)NC(=O)C(C)(C)O4)n2)ccc1N1CCOCC1` [Compound 23, N4-(2,2-dimethyl-3,4-dihydro-3-oxo-2H-pyrido[3,2-b][1,4]oxazin-6-yl)-5-fluoro-N2-[3-methyl-4-morpholinophenyl]-2,4-pyrimidinediamine], with less than 100 nM.
Regarding `Cc1cc(Nc2ncc(F)c(Nc3ccc4c(n3)NC(=O)C(C)(C)O4)n2)ccc1N1C[C@@H]2C[C@H]1CO2` [Compound 24, N4-(2,2-dimethyl-3,4-dihydro-3-oxo-2H-pyrido[3,2-b][1,4]oxazin-6-yl)-5-fluoro-N2-[3-methyl-4-((1S,4S)-5-oxa-2-aza-bicyclo[2.2.1]heptan-2-yl)phenyl]-2,4-pyrimidinediamine], the IC50 is less than 100 nM.
Then `CC1(C)Oc2ccc(Nc3nc(Nc4ccc(N5CCOCC5)c(OC(F)F)c4)ncc3F)nc2NC1=O` [Compound 25, N4-(2,2-dimethyl-3,4-dihydro-3-oxo-2H-pyrido[3,2-b][1,4]oxazin-6-yl)-5-fluoro-N2-[3-difluoromethoxy-4-morpholinophenyl]-2,4-pyrimidinediamine], with 1000 to 100000 nM; and `CC1(C)Oc2ccc(Nc3nc(Nc4ccc(N5CCOCC5)c(F)c4)ncc3F)nc2NC1=O` [Compound 26, N4-(2,2-dimethyl-3,4-dihydro-3-oxo-2H-pyrido[3,2-b][1,4]oxazin-6-yl)-5-fluoro-N2-[3-fluoro-4-morpholinophenyl]-2,4-pyrimidinediamine], with less than 100 nM.
On to `COc1cc(Nc2ncc(F)c(Nc3ccc4c(n3)NC(=O)C(C)(C)O4)n2)ccc1N1CCOCC1` [Compound 27, N4-(2,2-dimethyl-3,4-dihydro-3-oxo-2H-pyrido[3,2-b][1,4]oxazin-6-yl)-5-fluoro-N2-[3-methoxy-4-morpholinophenyl]-2,4-pyrimidinediamine], for which the IC50 is less than 100 nM.
Under `CC1(C)Oc2ccc(Nc3nc(Nc4ccc(N5CCOCC5)c(OC(F)(F)F)c4)ncc3F)nc2NC1=O` [Compound 28, N4-(2,2-dimethyl-3,4-dihydro-3-oxo-2H-pyrido[3,2-b][1,4]oxazin-6-yl)-5-fluoro-N2-[3-trifluoromethoxy-4-morpholinophenyl]-2,4-pyrimidinediamine] stands greater than 100000 nM.
Then `CC1(C)Oc2ccc(Nc3nc(Nc4ccc(N5CCC(F)(F)CC5)cc4)ncc3F)nc2NC1=O` [Compound 29, N4-(2,2-dimethyl-3,4-dihydro-3-oxo-2H-pyrido[3,2-b][1,4]oxazin-6-yl)-5-fluoro-N2-[4-(4,4-difluoro-1-piperidinyl)phenyl]-2,4-pyrimidinediamine], with 1000 to 100000 nM; and `CC1(C)Oc2ccc(Nc3nc(Nc4ccc(N5CCC(F)(F)CC5)c(F)c4)ncc3F)nc2NC1=O` [Compound 30, N4-(2,2-dimethyl-3,4-dihydro-3-oxo-2H-pyrido[3,2-b][1,4]oxazin-6-yl)-5-fluoro-N2-[3-fluoro-4-(4,4-difluoro-1-piperidinyl)phenyl]-2,4-pyrimidinediamine], with 1000 to 100000 nM.
Then `CC1(C)Oc2ccc(Nc3nc(Nc4cc(F)c(N5CCOCC5)c(F)c4)ncc3F)nc2NC1=O` [Compound 31, N4-(2,2-dimethyl-3,4-dihydro-3-oxo-2H-pyrido[3,2-b][1,4]oxazin-6-yl)-5-fluoro-N2-[3,5-difluoro-4-morpholinophenyl]-2,4-pyrimidinediamine], with 1000 to 100000 nM; and `Cc1cc(Nc2ncc(F)c(Nc3ccc4c(n3)NC(=O)CO4)n2)ccc1N1CCOCC1` [Compound 32], with less than 100 nM.
`COc1cc(Nc2ncc(F)c(Nc3ccc4c(n3)NC(=O)CO4)n2)ccc1N1CCOCC1` [Compound 33, N4-(3,4-dihydro-3-oxo-2H-pyrido[3,2-b][1,4]oxazin-6-yl)-5-fluoro-N2-[3-methoxy-4-morpholinophenyl]-2,4-pyrimidinediamine]: the half-maximal inhibitory concentration (IC50) was less than 100 nM.
Under `O=C1COc2ccc(Nc3nc(Nc4ccc(N5CCOCC5)c(F)c4)ncc3F)nc2N1` [Compound 34, N4-(3,4-dihydro-3-oxo-2H-pyrido[3,2-b][1,4]oxazin-6-yl)-5-fluoro-N2-[3-fluoro-4-morpholinophenyl]-2,4-pyrimidinediamine] stands less than 100 nM; under `C[C@@H]1CN(c2ccc(Nc3ncc(F)c(Nc4ccc5c(n4)NC(=O)CO5)n3)cc2)C[C@H](C)O1` [Compound 35, rac-Cis-N4-(3,4-dihydro-3-oxo-2H-pyrido[3,2-b][1,4]oxazin-6-yl)-5-fluoro-N2-[4-(2,6-dimethylmorpholino)phenyl]-2,4-pyrimidinediamine], 100 to 500 nM; under `C[C@@H]1CN(c2ccc(Nc3ncc(F)c(Nc4ccc5c(n4)NC(=O)C(C)(C)O5)n3)cc2)C[C@H](C)O1` [Compound 36, rac-Cis-N4-(2,2-dimethyl-3,4-dihydro-3-oxo-2H-pyrido[3,2-b][1,4]oxazin-6-yl)-5-fluoro-N2-[4-(2,6-dimethylmorpholino)phenyl]-2,4-pyrimidinediamine], 100 to 500 nM.
